According to PubChem BioAssay AID248 (DTP/NCI, 2004):
Values joined by “and” are separate entries in the source; they are usually repeats but may differ in a detail not shown here. Equal values may be shown once. Inconclusive results and toxic doses are left out. Cut-off read from the data, not from the text of the source: active = T/C of 150% or more; inactive = T/C below 125%.

Test system: L1210 leukemia ip in BDF1 mice, survival T/C
Assay: NCI In Vivo Anticancer Drug Screen. Data for tumor model L1210 Leukemia (intraperitoneal) in B6D2F1 (BDF1) mice
Settings: endpoint: mean survival time, higher = longer survival
Procedure, shortened: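 Each compound was tested against a transplantable tumor grown in mice. The endpoint was survival, with treated animals benchmarked against vehicle controls as a simple ratio.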

[1] = dose: 100.0 mg/kg/injection, schedule: Q01DX001 (ip), vehicle: carboxymethylcellulose (CMC)
[2] = dose: 200.0 mg/kg/injection, schedule: Q01DX001 (ip), vehicle: carboxymethylcellulose (CMC)
[3] = dose: 400.0 mg/kg/injection, schedule: Q01DX001 (ip), vehicle: carboxymethylcellulose (CMC)
[4] = dose: 100.0 mg/kg/injection, schedule: Q01DX009 (ip), vehicle: Klucel (hydroxypropylcellulose) (HPC)
[5] = dose: 100.0 mg/kg/injection, schedule: Q04DX003 (ip), vehicle: Klucel (hydroxypropylcellulose) (HPC)
[6] = dose: 200.0 mg/kg/injection, schedule: Q01DX009 (ip), vehicle: Klucel (hydroxypropylcellulose) (HPC)
[7] = dose: 200.0 mg/kg/injection, schedule: Q04DX003 (ip), vehicle: Klucel (hydroxypropylcellulose) (HPC)
[8] = dose: 400.0 mg/kg/injection, schedule: Q01DX009 (ip), vehicle: Klucel (hydroxypropylcellulose) (HPC)
[9] = dose: 400.0 mg/kg/injection, schedule: Q04DX003 (ip), vehicle: Klucel (hydroxypropylcellulose) (HPC)
[10] = dose: 25.0 mg/kg/injection, schedule: Q01DX009 (ip), vehicle: saline
[11] = dose: 100.0 mg/kg/injection, schedule: Q04DX003 (ip), vehicle: saline
[12] = dose: 200.0 mg/kg/injection, schedule: Q04DX003 (ip), vehicle: saline
[13] = dose: 400.0 mg/kg/injection, schedule: Q04DX003 (ip), vehicle: saline
[14] = dose: 100.0 mg/kg/injection, schedule: Q01DX001 (ip), vehicle: saline
[15] = dose: 200.0 mg/kg/injection, schedule: Q01DX001 (ip), vehicle: saline
[16] = dose: 400.0 mg/kg/injection, schedule: Q01DX001 (ip), vehicle: saline

Measured: T/C

O=C1c2ccccc2C(=O)C2OC12 (centres undefined)
inactive: dose: 3.0 mg/kg/injection, schedule: Q01DX009 (ip), vehicle: Klucel (hydroxypropylcellulose) (HPC) 97 % of control | dose: 6.0 mg/kg/injection, schedule: Q01DX009 (ip), vehicle: Klucel (hydroxypropylcellulose) (HPC) 93 % of control | dose: 12.0 mg/kg/injection, schedule: Q01DX009 (ip), vehicle: Klucel (hydroxypropylcellulose) (HPC) 97 % of control | dose: 12.5 mg/kg/injection, schedule: Q04DX002 (ip), vehicle: Klucel (hydroxypropylcellulose) (HPC) 102 % of control | dose: 25.0 mg/kg/injection, schedule: Q04DX002 (ip), vehicle: Klucel (hydroxypropylcellulose) (HPC) 94 % of control | dose: 50.0 mg/kg/injection, schedule: Q01DX001 (ip), vehicle: carboxymethylcellulose (CMC) 98 % of control | dose: 50.0 mg/kg/injection, schedule: Q04DX002 (ip), vehicle: Klucel (hydroxypropylcellulose) (HPC) 97 % of control | [1] 109 % of control | [2] 98 % of control | [3] 104 % of control

ClCCCCCCCCCCCl
inactive: [4] 94 % of control and 97 % of control | [5] 97 % of control | [6] 94 % of control and 102 % of control | [7] 92 % of control | [8] 92 % of control | [9] 99 % of control

N/N=C\C(=N/N)C(O)C(O)C(O)C(O)CO (centres undefined)
inactive: dose: 100.0 mg/kg/injection, schedule: Q04DX003 (ip), vehicle: saline with Tween-80 86 % of control | dose: 200.0 mg/kg/injection, schedule: Q04DX003 (ip), vehicle: saline with Tween-80 88 % of control | dose: 400.0 mg/kg/injection, schedule: Q04DX003 (ip), vehicle: saline with Tween-80 93 % of control

CCC(C)NCCNCCNC(C)CC (centres undefined)
inactive: dose: 6.25 mg/kg/injection, schedule: Q01DX009 (ip), vehicle: saline 101 % of control | dose: 6.25 mg/kg/injection, schedule: Q04DX003 (ip), vehicle: Klucel (hydroxypropylcellulose) (HPC) 102 % of control | dose: 12.5 mg/kg/injection, schedule: Q01DX009 (ip), vehicle: saline 108 % of control | dose: 12.5 mg/kg/injection, schedule: Q04DX003 (ip), vehicle: Klucel (hydroxypropylcellulose) (HPC) 102 % of control | [10] 90 % of control | dose: 25.0 mg/kg/injection, schedule: Q04DX003 (ip), vehicle: Klucel (hydroxypropylcellulose) (HPC) 109 % of control

O=[N+]([O-])c1ccc(OCc2ccc(S(=O)(=O)F)c(Cl)c2)c(Cl)c1
inactive: dose: 100.0 mg/kg/injection, schedule: Q01DX009 (ip), vehicle: other 101 % of control | [11] 101 % of control | dose: 200.0 mg/kg/injection, schedule: Q01DX009 (ip), vehicle: other 108 % of control | [12] 104 % of control | dose: 400.0 mg/kg/injection, schedule: Q01DX009 (ip), vehicle: other 94 % of control | [13] 88 % of control

Cc1cccc(C)c1NC(=O)Nc1cccc(Cl)c1
inactive: [4] 93 % of control | [5] 94 % of control | [6] 93 % of control | [7] 89 % of control | [8] 92 % of control | [9] 89 % of control

Nc1nc(-c2cccs2)cc(C(F)(F)F)n1
inactive: [5] 94 % of control | [7] 94 % of control | [9] 102 % of control

Cc1ccccc1-n1nnc2ccccc2c1=O
inactive: [14] 95 % of control | [11] 95 % of control | [15] 92 % of control | [12] 115 % of control | [16] 89 % of control | [13] 88 % of control

Oc1cccc2ccc3cccc(O)c3c12
inactive: dose: 100.0 mg/kg/injection, schedule: Q04DX003 (ip), vehicle: alcohol 100 % of control | dose: 200.0 mg/kg/injection, schedule: Q04DX003 (ip), vehicle: alcohol 93 % of control

CN(C)CCC(C)(N)c1cccc2ccccc12 (centres undefined)
inactive: [11] 113 % of control | [12] 107 % of control

C=CC(=O)NC(=O)/C=C/c1cccnc1
inactive: dose: 100.0 mg/kg/injection, schedule: Q04DX002 (ip), vehicle: Klucel (hydroxypropylcellulose) (HPC) 117 % of control | dose: 200.0 mg/kg/injection, schedule: Q04DX002 (ip), vehicle: Klucel (hydroxypropylcellulose) (HPC) 106 % of control | dose: 400.0 mg/kg/injection, schedule: Q04DX002 (ip), vehicle: Klucel (hydroxypropylcellulose) (HPC) 120 % of control

CC(=O)Nc1ccc(NS(=O)(=O)O)cc1
inactive: dose: 50.0 mg/kg/injection, schedule: Q01DX001 (ip), vehicle: saline 96 % of control | [14] 96 % of control | [15] 93 % of control | [16] 96 % of control

Oc1cccc2ccc(N/N=C/c3ccc4cccnc4c3O)nc12
inactive: [1] 93 % of control | [2] 102 % of control | [3] 93 % of control

COC(=O)CCN1CCN(c2ccccc2)CC1
inactive: [14] 98 % of control | [15] 98 % of control | [16] 97 % of control

O=C1OCC2CC3c4ccccc4C12c1ccccc13 (centres undefined)
inactive: dose: 100.0 mg/kg/injection, schedule: Q01DX001 (ip), vehicle: Klucel (hydroxypropylcellulose) (HPC) 100 % of control | [5] 98 % of control | dose: 200.0 mg/kg/injection, schedule: Q01DX001 (ip), vehicle: Klucel (hydroxypropylcellulose) (HPC) 92 % of control | [7] 93 % of control | dose: 400.0 mg/kg/injection, schedule: Q01DX001 (ip), vehicle: Klucel (hydroxypropylcellulose) (HPC) 105 % of control | [9] 97 % of control

NC1=NCC(CSS(=O)(=O)O)S1 (centres undefined)
inactive: dose: 5.0 mg/kg/injection, schedule: Q01DX009 (ip), vehicle: saline 95 % of control | dose: 10.0 mg/kg/injection, schedule: Q01DX001 (ip), vehicle: saline 101 % of control | dose: 10.0 mg/kg/injection, schedule: Q01DX009 (ip), vehicle: saline 89 % of control | dose: 10.0 mg/kg/injection, schedule: Q04DX003 (ip), vehicle: saline 96 % of control | dose: 20.0 mg/kg/injection, schedule: Q01DX001 (ip), vehicle: saline 93 % of control | dose: 20.0 mg/kg/injection, schedule: Q01DX009 (ip), vehicle: saline 106 % of control | dose: 20.0 mg/kg/injection, schedule: Q04DX003 (ip), vehicle: saline 105 % of control | dose: 29.0 mg/kg/injection, schedule: Q01DX009 (ip), vehicle: saline 90 % of control | dose: 40.0 mg/kg/injection, schedule: Q01DX001 (ip), vehicle: saline 95 % of control | dose: 40.0 mg/kg/injection, schedule: Q04DX003 (ip), vehicle: saline 97 % of control

CC(C)(O)C(O)CC1=C(O)c2ccccc2C(=O)C1=O (centres undefined)
inactive: dose: 100.0 mg/kg/injection, schedule: Q01DX001 (ip), vehicle: water 106 % of control | dose: 200.0 mg/kg/injection, schedule: Q01DX001 (ip), vehicle: water 97 % of control | dose: 400.0 mg/kg/injection, schedule: Q01DX001 (ip), vehicle: water 93 % of control

N#Cc1ccccc1NN=Nc1ccccc1-c1nc(N)nc(N)n1
inactive: dose: 25.0 mg/kg/injection, schedule: Q04DX003 (ip), vehicle: saline 97 % of control | dose: 50.0 mg/kg/injection, schedule: Q04DX003 (ip), vehicle: saline 103 % of control

NCCc1cnc2ccccc2n1
inactive: [10] 95 % of control | dose: 50.0 mg/kg/injection, schedule: Q01DX009 (ip), vehicle: saline 97 % of control | dose: 100.0 mg/kg/injection, schedule: Q01DX009 (ip), vehicle: saline 96 % of control | [11] 98 % of control

CC(C)n1cc2cc([N+](=O)[O-])ccc2n1
inactive: dose: 50.0 mg/kg/injection, schedule: Q01DX009 (ip), vehicle: Klucel (hydroxypropylcellulose) (HPC) 91 % of control | [4] 97 % of control | [6] 97 % of control

C=CC(=O)O (tested in a mixture with another compound)
inactive: dose: 100.0 mg/kg/injection, schedule: Q01DX Z (ip), vehicle: saline 91 % of control

CC(C)N(C)C(C)(C)CO
inactive: dose: 100.0 mg/kg/injection, schedule: Q04DX003 (ip), vehicle: saline sonified 92 % of control | dose: 200.0 mg/kg/injection, schedule: Q04DX003 (ip), vehicle: saline sonified 106 % of control
